From patent publication US20190046545A1, “COMPOSITIONS WITH SPECIFIC OLIGOSACCHARIDES TO PREVENT LATER IN LIFE OBESITY OR RELATED COMORBIDITIES, BY INCREASING COLONIC SCFA PRODUCTION AND/OR BY INCREASING GLP-1 SECRETION” (NESTEC S.A., priority 2016, published 2019) come the findings set out here.

The assay has as its system BALB/cByJ CRL mice. As to the kind of experiment: SCFA production in caecum content of mice fed low-fiber diets enriched with 5% of tested fibers, measured by Gas-Liquid Chromatography. Conditions: 5 wt % fiber, versus low-fiber diet only. The assay is classed as in vivo. From the text: 5 week old females BALB/cByJ CRL mice from Charles River were split into several groups and fed during 6 weeks based on the following protocol: • Week 1: low-fiber diet (composition is detailed in table 2) for all groups • Weeks 2 to 6: • Control group (group A): low-fiber diet (same as for week 1) • Test groups (groups B-D): low-fiber diet (same as for week 1) supplemented with 5 wt % of a tested fiber (5% of the total low fiber diet was replaced by 5% of a tested fiber)
The following fibers were tested: • BMOs=bovine milk oligosaccharides: an oligosaccharide mixture comprising 99.3% of GOS, 0.2% of N-acetylated oligosaccharide and 0.5% sialylated oligosaccharide was tested • PDX=polydextrose • Pectin
After 6 weeks, the animals of each group were sacrificed and the content from caecum was collected. The SOFA production were measured by Gas-Liquid Chromatography (GLC; amounts of SOFA in nmol/mg dry weight). The following SOFA were measured: propionate, butyrate, valerate and acetate.
The measure was made based on the following protocol: SOFA in an acid solution (pH 2.0 to 3.0) were separated on a GLC column coated with a polar stationary phase. […] After centrifugation, the sterile-filtered supernatant was ready for analysis by GLC. SOFA were measured simultaneously.
Median ratio values were calculated in order to compare the different fiber-enriched diets on SOFA production.

Take Pectin: the “Caecal SCFA production (acetate, propionate, butyrate, valerate) compared with low-fiber diet” value is “less SOFA release of all kinds”.

Take polydextrose [PDX]: the “Caecal SCFA production (acetate, propionate, butyrate, valerate) compared with low-fiber diet” value was “less SOFA release of all kinds”.
